Laboratory results taken from US9409903B2, “Benzyl substituted triazine derivatives and their therapeutical applications” (NantBioScience, Inc., priority 2009, dated 2016).

Experiments:
Format in all cases: biochemical
Flt3 kinase = target: T1, Flt3 kinase (Homo sapiens, UniProt P36888); assay: Flt3 kinase inhibition assay (KinaseProfiler / Kinase Hotspot); conditions: compound at 1 μM
T1 construct: purchased Millipore (KinaseProfiler service); also Reaction Biology Corp. (Kinase Hotspot)
T1 sequence (P36888 27-993): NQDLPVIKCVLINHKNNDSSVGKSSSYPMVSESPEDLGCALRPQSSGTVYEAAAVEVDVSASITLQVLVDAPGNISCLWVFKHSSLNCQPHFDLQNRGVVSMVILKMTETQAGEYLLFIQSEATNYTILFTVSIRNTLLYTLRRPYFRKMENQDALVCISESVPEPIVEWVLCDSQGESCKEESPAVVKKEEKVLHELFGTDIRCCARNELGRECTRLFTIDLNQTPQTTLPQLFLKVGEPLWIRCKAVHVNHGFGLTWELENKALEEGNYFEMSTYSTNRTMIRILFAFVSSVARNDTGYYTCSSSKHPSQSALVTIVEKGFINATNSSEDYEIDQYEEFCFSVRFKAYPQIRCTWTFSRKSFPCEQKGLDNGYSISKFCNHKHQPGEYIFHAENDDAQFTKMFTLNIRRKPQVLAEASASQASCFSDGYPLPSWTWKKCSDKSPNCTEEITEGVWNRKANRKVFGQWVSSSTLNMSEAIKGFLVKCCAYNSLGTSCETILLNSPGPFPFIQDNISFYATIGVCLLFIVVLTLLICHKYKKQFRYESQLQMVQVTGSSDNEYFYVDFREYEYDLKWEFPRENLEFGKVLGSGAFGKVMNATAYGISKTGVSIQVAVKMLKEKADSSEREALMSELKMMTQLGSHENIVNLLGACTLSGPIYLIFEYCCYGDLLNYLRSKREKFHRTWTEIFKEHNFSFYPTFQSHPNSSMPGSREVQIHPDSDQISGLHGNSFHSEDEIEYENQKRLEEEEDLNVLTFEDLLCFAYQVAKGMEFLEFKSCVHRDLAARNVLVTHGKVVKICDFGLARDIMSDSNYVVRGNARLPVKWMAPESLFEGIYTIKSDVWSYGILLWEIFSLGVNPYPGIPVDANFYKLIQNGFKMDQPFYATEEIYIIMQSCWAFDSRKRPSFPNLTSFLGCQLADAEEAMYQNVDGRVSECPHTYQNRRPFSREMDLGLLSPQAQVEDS
Procedure: (§1) This example illustrated c-Src kinase, Aurora-A kinase, Flt3 kinase, Ret kinase and TrkA Kinase Assays of selected Compounds from this invention (referred to Daniele Fancelli et al, J. Med. Chem., 2006, 49 (24), pp 7247-7251). The KinaseProfiler™ Service Assay Protocols (Millipore) were used to test the kinase inhibiting activity of novel compounds from this invention. To do this, the buffer composition was as: 20 mM MOPS, 1 mM EDTA, 0.01% Brij-35, 5% Glycerol, 0.1% β-mercaptoethanol, 1 mg/mL BSA. Test compounds were initially dissolved in DMSO at the desired concentration, then serially diluted to the kinase assay buffer. In a final reaction volume of 25 μL, Aurora-A(h) (5-10 mU) is incubated with 8 mM MOPS pH 7.0, 0.2 mM EDTA, 200 μM LRRASLG (Kemptide), 10 mM MgAcetate and [γ^33P-ATP]. The reaction was initiated by the addition of the MgATP mix. After incubation for 40 minute at room temperature, the reaction was stopped by addition of 5 μL of a 3% phosphoric acid solution. 10 μL of the reaction was then spotted onto a P30 filtermat and washed three times for 5 minutes in 50 mM phosphoric acid and once in methanol prior to drying and scintillation counting. Wells containing substrate but no kinase and wells containing a phosphopeptide control were used to set 0% and 100% phosphorylation value, receptively.
(§2) Also Kinase Hotspot^SM kinase assay was used to test the compounds for IC50 or % inhibitions (Reaction Biology Corp.). Inhibitor IC50 values were determined by titration of compound at the optimal kinase concentration (Kinase EC50).

Ret kinase = target: T2, Ret kinase (Homo sapiens, UniProt P07949); assay: Ret kinase inhibition assay (KinaseProfiler / Kinase Hotspot); conditions: compound at 1 μM
T2 construct: purchased Millipore (KinaseProfiler service); also Reaction Biology Corp. (Kinase Hotspot)
T2 sequence (P07949 29-1114): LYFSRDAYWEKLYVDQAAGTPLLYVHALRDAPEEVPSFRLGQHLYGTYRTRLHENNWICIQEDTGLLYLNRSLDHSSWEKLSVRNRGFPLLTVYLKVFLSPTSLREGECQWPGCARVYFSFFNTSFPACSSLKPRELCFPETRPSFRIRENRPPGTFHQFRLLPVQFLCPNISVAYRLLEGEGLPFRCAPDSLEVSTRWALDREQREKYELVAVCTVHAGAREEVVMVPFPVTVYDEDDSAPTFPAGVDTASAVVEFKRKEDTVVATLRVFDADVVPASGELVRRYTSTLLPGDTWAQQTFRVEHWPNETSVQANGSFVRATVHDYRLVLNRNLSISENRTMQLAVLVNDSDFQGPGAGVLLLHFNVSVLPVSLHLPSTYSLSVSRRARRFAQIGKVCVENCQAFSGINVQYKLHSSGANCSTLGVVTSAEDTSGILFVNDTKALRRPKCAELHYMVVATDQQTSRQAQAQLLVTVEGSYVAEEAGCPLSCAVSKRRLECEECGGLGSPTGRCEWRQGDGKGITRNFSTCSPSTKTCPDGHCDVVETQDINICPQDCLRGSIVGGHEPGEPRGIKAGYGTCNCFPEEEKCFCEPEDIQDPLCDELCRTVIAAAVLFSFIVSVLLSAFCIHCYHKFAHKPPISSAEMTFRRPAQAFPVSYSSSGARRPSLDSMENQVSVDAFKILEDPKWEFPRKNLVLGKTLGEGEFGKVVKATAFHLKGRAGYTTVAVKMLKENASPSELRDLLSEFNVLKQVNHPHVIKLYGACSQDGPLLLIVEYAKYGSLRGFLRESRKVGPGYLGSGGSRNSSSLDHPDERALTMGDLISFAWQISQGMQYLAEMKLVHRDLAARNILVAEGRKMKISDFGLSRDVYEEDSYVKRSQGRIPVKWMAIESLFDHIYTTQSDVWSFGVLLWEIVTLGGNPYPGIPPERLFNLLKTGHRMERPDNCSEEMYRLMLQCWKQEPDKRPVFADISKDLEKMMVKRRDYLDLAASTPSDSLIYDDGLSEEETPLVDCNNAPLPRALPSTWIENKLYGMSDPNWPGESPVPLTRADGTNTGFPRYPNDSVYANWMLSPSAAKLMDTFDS
Procedure: as §1, §2

TrkA Kinase = target: T3, TrkA Kinase (Homo sapiens, UniProt P04629); assay: TrkA kinase inhibition assay (KinaseProfiler / Kinase Hotspot); conditions: compound at 1 μM
T3 construct: purchased Millipore (KinaseProfiler service); also Reaction Biology Corp. (Kinase Hotspot)
T3 sequence (P04629 33-796): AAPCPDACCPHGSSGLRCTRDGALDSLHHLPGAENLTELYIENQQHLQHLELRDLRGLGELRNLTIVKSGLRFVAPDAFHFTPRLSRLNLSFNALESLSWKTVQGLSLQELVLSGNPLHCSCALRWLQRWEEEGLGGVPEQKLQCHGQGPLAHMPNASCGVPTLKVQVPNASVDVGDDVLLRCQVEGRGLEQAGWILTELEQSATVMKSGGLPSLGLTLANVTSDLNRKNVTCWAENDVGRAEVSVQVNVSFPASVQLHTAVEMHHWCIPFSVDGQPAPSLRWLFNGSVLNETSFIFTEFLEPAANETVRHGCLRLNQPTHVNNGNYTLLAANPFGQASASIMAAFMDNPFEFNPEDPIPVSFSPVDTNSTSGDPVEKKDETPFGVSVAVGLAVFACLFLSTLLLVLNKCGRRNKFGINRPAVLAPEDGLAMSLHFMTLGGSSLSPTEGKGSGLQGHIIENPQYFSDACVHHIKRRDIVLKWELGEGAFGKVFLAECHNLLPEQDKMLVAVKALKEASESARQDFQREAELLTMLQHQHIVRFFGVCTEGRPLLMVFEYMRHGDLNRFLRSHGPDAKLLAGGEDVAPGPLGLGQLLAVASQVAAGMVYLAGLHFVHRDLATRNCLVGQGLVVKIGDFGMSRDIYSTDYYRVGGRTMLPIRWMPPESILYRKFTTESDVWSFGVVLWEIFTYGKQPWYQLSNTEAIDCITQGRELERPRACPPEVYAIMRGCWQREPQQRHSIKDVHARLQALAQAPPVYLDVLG
Procedure: as §1, §2

Aurora-A(h) = target: T4, Aurora-A(h) (Homo sapiens, UniProt O14965); assay: Aurora-A kinase inhibition assay (KinaseProfiler / Kinase Hotspot); conditions: compound at 1 μM
T4 construct: purchased Millipore (KinaseProfiler service); also Reaction Biology Corp. (Kinase Hotspot)
T4 sequence (O14965 1-403): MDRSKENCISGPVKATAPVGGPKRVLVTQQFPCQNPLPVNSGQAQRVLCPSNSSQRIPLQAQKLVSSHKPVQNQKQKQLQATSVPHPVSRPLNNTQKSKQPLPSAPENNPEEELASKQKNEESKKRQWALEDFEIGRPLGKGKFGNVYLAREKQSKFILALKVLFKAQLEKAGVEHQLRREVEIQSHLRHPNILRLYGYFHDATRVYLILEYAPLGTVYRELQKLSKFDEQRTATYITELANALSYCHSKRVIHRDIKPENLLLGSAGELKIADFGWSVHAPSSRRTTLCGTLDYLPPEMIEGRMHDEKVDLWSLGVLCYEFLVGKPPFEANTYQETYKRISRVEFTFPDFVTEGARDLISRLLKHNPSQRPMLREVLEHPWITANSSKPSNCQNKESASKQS
Procedure: as §1, §2

c-Src kinase = target: T5, c-Src kinase (Homo sapiens, UniProt P12931); assay: c-Src kinase inhibition assay (KinaseProfiler / Kinase Hotspot); conditions: compound at 1 μM; read-out: % Inhibition @1 μM cSrc
T5 construct: purchased Millipore (KinaseProfiler service); also Reaction Biology Corp. (Kinase Hotspot)
T5 sequence (P12931 whole entry): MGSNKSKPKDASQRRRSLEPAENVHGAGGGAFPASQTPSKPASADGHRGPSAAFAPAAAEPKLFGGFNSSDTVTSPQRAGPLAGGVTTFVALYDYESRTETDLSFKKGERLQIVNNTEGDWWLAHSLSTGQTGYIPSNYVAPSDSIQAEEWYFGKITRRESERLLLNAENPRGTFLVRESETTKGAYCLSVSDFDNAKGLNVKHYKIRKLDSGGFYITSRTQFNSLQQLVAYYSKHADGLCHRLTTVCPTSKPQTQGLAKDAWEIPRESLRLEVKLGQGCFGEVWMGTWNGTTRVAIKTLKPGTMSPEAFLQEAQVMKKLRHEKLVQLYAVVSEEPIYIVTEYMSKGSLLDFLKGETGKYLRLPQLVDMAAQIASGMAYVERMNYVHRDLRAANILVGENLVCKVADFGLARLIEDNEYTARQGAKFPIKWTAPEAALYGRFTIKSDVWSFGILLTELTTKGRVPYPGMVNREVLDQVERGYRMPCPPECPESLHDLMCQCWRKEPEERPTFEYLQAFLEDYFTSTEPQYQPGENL
Procedure: as §1, §2

Row | SMILES | % Inhibition @1 μM Flt3 (Flt3 kinase) [%] | % Inhibition @1 μM Ret (Ret kinase) [%] | % Inhibition @1 μM TrkA (TrkA Kinase) [%] | inhibition at 1 µM (Aurora-A(h)) [%] | inhibition at 1 µM (c-Src kinase) [%] | inhibition at 1 µM (Flt3 kinase) [%] | inhibition at 1 µM (Ret kinase) [%] | inhibition at 1 µM (TrkA Kinase) [%]
1 | Cc1cnc(Nc2nc(NCc3ccccc3)nc(N3CCN(C)CC3)n2)s1 [Example 7] | – | – | – | 50 to 90 | 50 to 90 | > 90 | > 90 | > 90
2 | CN1CCN(c2nc(NCc3ccccc3)nc(Nc3ncc(-c4ccccc4)s3)n2)CC1 [Example 19] | – | – | – | < 50 | < 50 | < 50 | < 50 | < 50
3 | CN1CCN(c2nc(NCc3ccccc3)nc(Nc3cc(-c4ccco4)[nH]n3)n2)CC1 [Example 12] | – | – | – | < 50 | 50 to 90 | > 90 | < 50 | > 90
4 | CN1CCN(c2nc(Nc3cc(-c4ccco4)[nH]n3)nc(OCc3ccccc3)n2)CC1 [Example 14] | – | – | – | < 50 | < 50 | > 90 | < 50 | > 90
5 | CN1CCN(c2nc(Nc3cc(-c4ccco4)[nH]n3)nc(SCc3ccccc3)n2)CC1 [Example 15] | – | – | – | < 50 | < 50 | > 90 | < 50 | > 90
6 | Cc1cnc(Nc2nc(NCc3ccc4c(c3)OCO4)nc(N3CCN(C)CC3)n2)s1 [Example 6] | – | – | – | 50 to 90 | 50 to 90 | > 90 | 50 to 90 | > 90
7 | CN1CCN(c2nc(Nc3cc(-c4ccco4)[nH]n3)nc(NC(C)(C)c3ccccc3)n2)CC1 [Example 23] | – | – | – | < 50 | < 50 | > 90 | > 90 | > 90
8 | CN1CCN(c2nc(Nc3cc(-c4ccco4)[nH]n3)nc(SCc3ccc(F)cc3)n2)CC1 [Example 11] | – | – | – | 50 to 90 | 50 to 90 | > 90 | < 50 | > 90
9 | CN1CCN(c2nc(Nc3cc(-c4ccco4)[nH]n3)nc(N(C)Cc3ccc(F)cc3)n2)CC1 [Example 10] | – | – | – | 50 to 90 | 50 to 90 | > 90 | < 50 | > 90

Further lines, results first:

Row | % Inhibition @1 μM Flt3 (Flt3 kinase) [%] | % Inhibition @1 μM Ret (Ret kinase) [%] | % Inhibition @1 μM TrkA (TrkA Kinase) [%] | inhibition at 1 µM (Aurora-A(h)) [%] | inhibition at 1 µM (c-Src kinase) [%] | inhibition at 1 µM (Flt3 kinase) [%] | inhibition at 1 µM (Ret kinase) [%] | inhibition at 1 µM (TrkA Kinase) [%] | SMILES
10 | >90 | >90 | >90 | – | – | – | – | – | C[C@@H](Nc1nc(Nc2cc(-c3ccco3)[nH]n2)nc(N2CCN(C)CC2)n1)c1ccc(F)cc1 [Example 22]
11 | – | – | – | 50 to 90 | 50 to 90 | 50 to 90 | < 50 | 50 to 90 | CC(Nc1nc(Nc2cc(C3CC3)[nH]n2)nc(N2CCN(C)CC2)n1)c1ccc(F)cc1 (stereo not shown) [Example 20]
12 | – | – | – | < 50 | < 50 | > 90 | > 90 | > 90 | C[C@H](Nc1nc(Nc2cc(-c3ccco3)[nH]n2)nc(N2CCN(C)CC2)n1)c1ccc(F)cc1 [Example 21]
13 | – | – | – | 50 to 90 | 50 to 90 | > 90 | 50 to 90 | > 90 | Cc1cnc(Nc2nc(NCc3ccc(F)cc3)nc(N3CCN(C)CC3)n2)s1 [Example 8]
14 | – | – | – | 50 to 90 | > 90 | > 90 | 50 to 90 | > 90 | CC(C)c1cnc(Nc2nc(N[C@@H](C)c3ccc(F)cc3)nc(N3CCN(C)CC3)n2)s1 [Example 3]
15 | – | – | – | < 50 | > 90 | > 90 | > 90 | > 90 | C[C@@H](Nc1nc(Nc2cc(-c3ccco3)[nH]n2)nc(N2CCN(C)CC2)n1)c1ccc(F)cc1 [Example 18]
16 | – | – | – | < 50 | 50 to 90 | > 90 | < 50 | > 90 | CN1CCN(c2nc(NCc3ccc(F)cc3)nc(Nc3cc(-c4ccco4)[nH]n3)n2)CC1 [Example 9]
17 | – | – | – | < 50 | 50 to 90 | > 90 | < 50 | 50 to 90 | CC(C)c1cnc(Nc2nc(N[C@H](C)c3ccc(F)cc3)nc(N3CCN(C)CC3)n2)s1 [Example 4]
18 | – | – | – | < 50 | > 90 | > 90 | < 50 | > 90 | CC(C)c1cnc(Nc2nc(NC(C)c3ccc(F)cc3)nc(N3CCN(C)CC3)n2)s1 (stereo not shown) [Example 2]
